According to paper PMC7662900, “Development of a Bestatin-SAHA Hybrid with Dual Inhibitory Activity against APN and HDAC” (Molecules, 2020):
“Also recorded” adds a separate entry of the source. Like-named read-outs stand apart in the source and are kept apart here.

Columns and labels:
HDAC1 = target: T1, HDAC1 (Homo sapiens, UniProt Q13547); assay: In vitro HDACs inhibitory assay (fluorogenic substrate), HDAC1; type: biochemical
T1 construct: purchased BPS Bioscience
Description: (§1) All the HDAC enzymes were brought from BPS Bioscience. Ten μL of enzyme solution (HDAC1, HDAC6 or HDAC8) was mixed with different concentrations of tested compound (50 μL). The mixture was incubated at 37 °C for 5 min, followed by adding 40 μL fluorogenic substrate (Boc-Lys(acetyl)-AMC for HDAC1 and HDAC6, Boc-Lys(triflouroacetyl)-AMC for HDAC8). After incubation at 37 °C for 30 min, the mixture was quenched by addition of 100 μL of developer containing trypsin and Trichostatin A. Over another incubation at 37 °C for 20 min, fluorescence intensity was measured using a microplate reader at excitation and emission wavelengths of 390 nm and 460 nm, respectively. The inhibition rates were calculated from the fluorescence intensity readout of tested wells relative to those of control wells, and the IC50 values were calculated using Prism non-linear curve fitting method.

HDAC6 = target: T2, HDAC6 (Homo sapiens, UniProt Q9UBN7); assay: In vitro HDACs inhibitory assay (fluorogenic substrate), HDAC6; type: biochemical
T2 construct: purchased BPS Bioscience
T2 sequence (Q9UBN7 1-1215): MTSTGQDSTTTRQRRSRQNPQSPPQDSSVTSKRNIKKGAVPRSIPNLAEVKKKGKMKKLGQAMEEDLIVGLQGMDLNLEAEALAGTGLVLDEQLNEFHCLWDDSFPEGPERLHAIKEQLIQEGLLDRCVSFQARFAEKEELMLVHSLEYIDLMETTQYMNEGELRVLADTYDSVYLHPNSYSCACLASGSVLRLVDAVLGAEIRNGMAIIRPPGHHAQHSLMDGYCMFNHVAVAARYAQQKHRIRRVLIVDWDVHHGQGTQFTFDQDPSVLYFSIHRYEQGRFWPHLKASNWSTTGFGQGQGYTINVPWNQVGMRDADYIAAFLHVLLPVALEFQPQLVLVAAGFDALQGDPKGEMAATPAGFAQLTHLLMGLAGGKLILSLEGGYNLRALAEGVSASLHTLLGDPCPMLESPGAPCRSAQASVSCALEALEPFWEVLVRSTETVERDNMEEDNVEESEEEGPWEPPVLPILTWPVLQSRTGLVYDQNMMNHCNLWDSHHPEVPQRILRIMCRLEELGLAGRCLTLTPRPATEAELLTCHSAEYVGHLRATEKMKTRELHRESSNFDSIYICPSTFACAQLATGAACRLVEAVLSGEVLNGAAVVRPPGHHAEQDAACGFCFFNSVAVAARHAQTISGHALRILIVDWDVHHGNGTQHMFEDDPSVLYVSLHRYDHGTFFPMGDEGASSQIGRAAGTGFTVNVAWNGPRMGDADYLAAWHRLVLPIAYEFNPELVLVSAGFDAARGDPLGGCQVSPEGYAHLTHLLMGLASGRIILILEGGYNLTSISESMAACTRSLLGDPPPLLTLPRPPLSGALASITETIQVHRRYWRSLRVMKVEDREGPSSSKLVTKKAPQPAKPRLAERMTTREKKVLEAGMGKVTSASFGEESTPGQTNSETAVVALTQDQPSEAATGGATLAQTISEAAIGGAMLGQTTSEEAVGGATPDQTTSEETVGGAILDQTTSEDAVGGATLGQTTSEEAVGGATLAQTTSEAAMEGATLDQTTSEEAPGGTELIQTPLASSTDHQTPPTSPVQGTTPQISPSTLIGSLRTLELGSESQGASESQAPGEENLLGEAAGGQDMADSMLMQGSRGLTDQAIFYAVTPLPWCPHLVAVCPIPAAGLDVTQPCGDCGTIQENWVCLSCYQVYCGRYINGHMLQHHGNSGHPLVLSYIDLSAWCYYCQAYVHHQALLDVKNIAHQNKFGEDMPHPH
Description: as §1

HDAC8 = target: T3, HDAC8 (Homo sapiens, UniProt Q9BY41); assay: In vitro HDACs inhibitory assay (fluorogenic substrate), HDAC8; type: biochemical
T3 construct: purchased BPS Bioscience
T3 sequence (Q9BY41 1-377): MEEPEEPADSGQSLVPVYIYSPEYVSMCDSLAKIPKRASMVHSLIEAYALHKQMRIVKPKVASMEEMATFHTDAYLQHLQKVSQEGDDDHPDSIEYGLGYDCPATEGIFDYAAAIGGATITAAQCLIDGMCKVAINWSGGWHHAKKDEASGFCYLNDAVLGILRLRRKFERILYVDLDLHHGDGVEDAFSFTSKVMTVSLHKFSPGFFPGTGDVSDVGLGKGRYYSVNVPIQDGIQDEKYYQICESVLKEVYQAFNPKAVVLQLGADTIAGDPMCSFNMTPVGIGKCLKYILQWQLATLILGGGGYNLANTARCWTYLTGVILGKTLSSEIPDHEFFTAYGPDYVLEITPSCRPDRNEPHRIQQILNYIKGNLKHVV
Description: as §1

[1] = target: T4, microsomal APN from porcine kidney microsomes (Sus scrofa, UniProt P15145); assay: In vitro APN inhibitory assay (l-leu-p-nitroanilide substrate); type: biochemical; details: mean ± SD, n ≥ 3
T4 construct: microsomal APN from porcine kidney microsomes (Biocol); purchased Biocol; host or cells: porcine kidney microsomes (tissue-derived)
T4 sequence (P15145 1-963): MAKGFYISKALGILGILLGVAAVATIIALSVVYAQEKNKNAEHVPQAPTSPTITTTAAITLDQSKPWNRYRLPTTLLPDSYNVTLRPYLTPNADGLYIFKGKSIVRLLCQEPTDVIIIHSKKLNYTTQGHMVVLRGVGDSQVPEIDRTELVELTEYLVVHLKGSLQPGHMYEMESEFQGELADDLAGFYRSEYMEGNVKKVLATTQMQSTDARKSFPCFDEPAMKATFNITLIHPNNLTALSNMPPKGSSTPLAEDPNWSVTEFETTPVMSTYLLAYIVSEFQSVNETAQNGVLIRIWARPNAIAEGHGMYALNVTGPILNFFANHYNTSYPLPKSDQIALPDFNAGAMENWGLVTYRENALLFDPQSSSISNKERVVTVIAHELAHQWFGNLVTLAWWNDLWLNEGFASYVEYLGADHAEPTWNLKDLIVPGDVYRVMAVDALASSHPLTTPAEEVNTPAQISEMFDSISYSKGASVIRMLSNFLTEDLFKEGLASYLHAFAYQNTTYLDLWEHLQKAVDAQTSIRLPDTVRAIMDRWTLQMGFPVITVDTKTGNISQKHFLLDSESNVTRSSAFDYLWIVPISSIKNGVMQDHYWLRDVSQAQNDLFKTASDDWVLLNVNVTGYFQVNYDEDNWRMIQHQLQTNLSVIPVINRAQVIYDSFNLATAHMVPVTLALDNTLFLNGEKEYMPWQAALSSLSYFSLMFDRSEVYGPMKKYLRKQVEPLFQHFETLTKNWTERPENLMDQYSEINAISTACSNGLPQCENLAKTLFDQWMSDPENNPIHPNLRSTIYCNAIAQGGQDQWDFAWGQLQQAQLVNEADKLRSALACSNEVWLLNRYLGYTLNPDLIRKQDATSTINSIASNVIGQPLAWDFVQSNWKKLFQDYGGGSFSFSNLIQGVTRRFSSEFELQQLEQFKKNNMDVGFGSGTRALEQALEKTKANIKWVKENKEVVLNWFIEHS
Description: The inhibitory activities of target compounds against APN were determined using l-leu-p-nitroanilide as substrate and microsomal APN from porcine kidney microsomes (Biocol) in 50 mM PBS, pH 7.2 as enzyme. Briefly, inhibitors (40 μL), PBS (145 μL), substrate (5 μL) and APN solution (10 μL) were added into 96-well plates. The mixture was incubated at 37 °C for 30 min. […] The inhibition rates were calculated based on the ultraviolet absorption readout of tested wells relative to those of control wells, and the IC50 values were calculated using Prism non-linear curve fitting method.

RPMI-8226 cells = assay: Western blot analysis of protein levels in RPMI-8226 cells; type: cell-based, human; details: for HDAC1, HDAC6 and HDAC8 protein levels (western blot) / HDAC decreasing effect under cotreatment with proteasome inhibitor bortezomib: 24 h treatment; for acetyl-histone H3 and acetyl-α-tubulin levels (intracellular target engagement) / HDAC1 and HDAC6 protein levels (western blot): 6 h treatment; for HDAC decreasing effect under cotreatment with proteasome inhibitor bortezomib: pre-incubated with 10 nM bortezomib
Description: The RPMI-8226 cells were plated in flat-bottom six-well plates and allowed to grow for 12 h, and then treated with compounds or DMSO for a specific time period. Then, the cells were washed twice with cold PBS and lysed in ice-cold RIPA buffer, which comprised 50 mM Tris Base, 150 mM NaCl, 5 mM EDTA, 0.1% (v/v) SDS, 0.5% (v/v) sodium deoxycholate and 1% (v/v) Triton-x-100. Lysates were cleared by centrifugation. Protein concentrations were determined using the BCA assay. Equal amounts of cell extracts were then resolved by SDS-PAGE, transferred to nitrocellulose membrane and probed with HDAC1 antibody, HDAC6 antibody, HDAC8 antibody, acetyl-histone H3 antibody, acetyl-α-tubulin antibody and β-actin antibody, respectively. The membrane was washed twice with TBST buffer before being incubated with secondary antibodies. Images were acquired using a GE ImageQuant LAS 4000.

rat thoracic aorta rings = assay: Ex vivo rat thoracic aorta rings (TARs) assay; type: cell-based; details: for anti-angiogenesis activity (microvessel outgrowth) at 5 μM: compared with bestatin at same concentration; for microvessel outgrowth from thoracic aorta ring: indicated concentrations, treated each day for 5 days
Description: Matrigel (100 μL; BD biosciences, NJ) was added into test well of 96-well plates and then allowed to polymerize for 0.5 h at 37 °C. Sprague–Dawley rats that were 4 to 6 weeks old were sacrificed and aortas were harvested. Each aorta was cut into 1 mm slices and embedded in additional 100 μL of Matrigel in 96-well plates. After that, the rings were incubated for 30 min at 37 °C and 5% CO2. Aorta rings were treated with the vehicle (0.5% DMSO) or compounds each day for 5 days and photographed on the sixth day at ×200 magnification. All experiments involving laboratory animals were performed with the approval by the institutional guidelines of Animal Care and Use Committee at Shandong University.

[2] = read-out: Inhibitory Rates at 10 μM, HDAC1
[3] = read-out: Inhibitory Rates at 10 μM, HDAC6
[4] = read-out: Inhibitory Rates at 10 μM, HDAC8

T1 sequence (Q13547 whole entry): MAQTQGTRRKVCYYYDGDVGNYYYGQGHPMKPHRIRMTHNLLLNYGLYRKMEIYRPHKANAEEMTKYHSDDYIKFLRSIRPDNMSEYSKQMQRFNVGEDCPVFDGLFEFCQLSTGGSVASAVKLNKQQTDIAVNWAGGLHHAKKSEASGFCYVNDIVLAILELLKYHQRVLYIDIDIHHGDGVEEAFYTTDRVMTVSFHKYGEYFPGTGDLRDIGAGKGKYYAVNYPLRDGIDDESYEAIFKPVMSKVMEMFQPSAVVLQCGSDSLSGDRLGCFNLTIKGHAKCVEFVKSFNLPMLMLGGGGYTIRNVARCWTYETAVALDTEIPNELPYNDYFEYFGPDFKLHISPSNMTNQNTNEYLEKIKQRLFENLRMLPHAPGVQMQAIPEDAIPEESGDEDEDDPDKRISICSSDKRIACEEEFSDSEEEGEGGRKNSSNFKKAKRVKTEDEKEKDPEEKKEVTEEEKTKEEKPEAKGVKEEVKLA

SMILES | IC50 (HDAC1; mean ± SD, n ≥ 3) | inhibition at 10 µM (HDAC1; read-out: Inhibitory Rates at 10 μM, HDAC1, 10 μM) | IC50 (HDAC6; mean ± SD, n ≥ 3) | inhibition at 10 µM (HDAC6; read-out: Inhibitory Rates at 10 μM, HDAC6, 10 μM) | IC50 (HDAC8; mean ± SD, n ≥ 3) | inhibition at 10 µM (HDAC8; read-out: Inhibitory Rates at 10 μM, HDAC8, 10 μM) | IC50 [1] | HDAC1, HDAC6 and HDAC8 protein levels (western blot) (RPMI-8226 cells; 1 μM to 4 μM) | acetyl-histone H3 and acetyl-α-tubulin levels (intracellular target engagement) (RPMI-8226 cells) | HDAC decreasing effect under cotreatment with proteasome inhibitor bortezomib (RPMI-8226 cells) | HDAC1 and HDAC6 protein levels (western blot) (RPMI-8226 cells; up to 20 μM) | anti-angiogenesis activity (microvessel outgrowth) at 5 μM (rat thoracic aorta rings) | microvessel outgrowth from thoracic aorta ring (rat thoracic aorta rings) | inhibition at 10 µM (HDAC1; [2]) | inhibition at 10 µM (HDAC6; [3]) | inhibition at 10 µM (HDAC8; [4]) | HDAC1, HDAC6 and HDAC8 protein levels (western blot) (RPMI-8226 cells; 5 μM) | HDAC1 and HDAC6 protein levels (western blot) (RPMI-8226 cells; indicated concentrations)
CC(C)C[C@H](NC(=O)[C@@H](O)[C@H](N)Cc1ccccc1)C(=O)NCCCCCC(=O)Nc1ccc(NC(=O)CCCCCCC(=O)NO)cc1.O=C(O)C(F)(F)F [P1, N^1-(4-(6-((S)-2-((2S,3R)-3-Amino-2-hydroxy-4-phenylbutanamido)-4-methylpentanamido)hexanamido)phenyl)-N^8-hydroxyoctanediamide trifluoroacetate] | 30 nM | > 90% | 11.5 nM | > 90% | 694 nM | > 90% | 3430 ± 140 nM | significantly decrease the levels of HDAC1, HDAC6 and even HDAC8 in a dose-dependent manner | increased levels of acetyl-histone H3 (the HDAC1 substrate) and acetyl-α-tubulin (the HDAC6 substrate) | could not reverse | did not lead to HDAC1 or HDAC6 depletion | superior anti-angiogenesis activities relative to bestatin | effectively inhibited the microvessel outgrowth in a dose-dependent manner | – | – | – | – | –
CC(C)C[C@H](NC(=O)[C@@H](O)[C@H](N)Cc1ccccc1)C(=O)NCCOCCOCCNC(=O)c1cccc(C(=O)NO)c1.O=C(O)C(F)(F)F [P2, N^1-((11S,14S,15R)-15-Amino-14-hydroxy-11-isobutyl-10,13-dioxo-16-phenyl-3,6-dioxa-9,12-diazahexadecyl)-N^3-hydroxyisophthalamide trifluoroacetate] | – | – | – | – | – | – | 1670 ± 30 nM | – | – | – | – | superior anti-angiogenesis activities relative to bestatin; also recorded: almost completely inhibit the microvessel outgrowth | effectively inhibited the microvessel outgrowth in a dose-dependent manner | 66% | 76% | 64% | – | –
CC(C)C[C@H](NC(=O)[C@@H](O)[C@H](N)Cc1ccccc1)C(=O)NCCOCCOCC(=O)Nc1cccc(C(=O)NO)c1 [P3, 3-((11S,14S,15R)-15-Amino-14-hydroxy-11-isobutyl-10,13-dioxo-16-phenyl-3,6-dioxa-9,12-diazahexadecanamido)-N-hydroxybenzamide] | – | – | – | – | – | – | 2650 ± 160 nM | – | – | – | – | superior anti-angiogenesis activities relative to bestatin | effectively inhibited the microvessel outgrowth in a dose-dependent manner | 67% | 71% | 51% | – | –
O=C(CCCCCCC(=O)Nc1ccccc1)NO [SAHA] | – | – | – | – | – | – | – | – | potently inhibited the intracellular HDAC | could not reverse | – | – | – | – | – | – | effectively lead to the downregulation of HDAC1, HDAC6 and HDAC8 | without influencing the levels of HDAC1 and HDAC6
